Drawing on ChEMBL document CHEMBL1149511, “Tri-substituted triazoles as potent non-nucleoside inhibitors of the HIV-1 reverse transcriptase” (Bioorg Med Chem Lett, 2006), this text covers EC50 for 70 molecules.

Common to all, as to assay type: functional, cell-based
The subject of experiment [1] is HeLa. The experiment is described as follows: Antiviral activity against wild type HIV1 in HeLa-JC53 cells. The note with it: Homo sapiens.
Experiment [2] deals with HeLa. The experiment is described as follows: Antiviral activity against HIV1 Y188L mutant in HeLa-JC53 cells.
The test system of experiment [3] is HeLa. The experiment is described as follows: Antiviral activity against HIV1 K103N-Y181C mutant in HeLa-JC53 cells.

With `Cc1nnc(SCC(=O)Nc2ccc(S(N)(=O)=O)cc2Cl)n1-c1ccc(Cl)c2ccccc12`, the EC50 in experiment [1] is 1 nM; in experiment [2], 68 nM.

Consider `COc1ccc(-n2c(C)nnc2SCC(=O)Nc2ccc(C)cc2Cl)c2ccccc12`, for which the EC50 was found to be 1 nM in experiment [1] and 240 nM in experiment [2].

In the case of `Cc1ccc(-n2c(C)nnc2SCC(=O)Nc2ccc(OC(F)(F)F)cc2Br)cc1`, the EC50 in experiment [1] was 58 nM; in experiment [3], above 10000 nM.

As for `Cc1ccc(-n2c(SCC(=O)Nc3ccc(C)cc3Br)nnc2C(C)C)cc1`, the EC50 in experiment [3] is above 10000 nM.

In the case of `Cc1ccc(-n2c(C)nnc2SCC(=O)Nc2cccc(C)c2C)cc1`, the EC50 was 60 nM in experiment [1] and above 10000 nM in experiment [3].

Regarding `Cc1ccc(-n2c(C)nnc2SCC(=O)Nc2ccc(Oc3ccccc3)cc2)cc1`, the EC50 is 1100 nM in experiment [1] and above 10000 nM in experiment [3].

In the case of `Cc1nnc(SCC(=O)Nc2ccccc2Br)n1-c1ccc(N(C)C)c2ccccc12`, the EC50 amounted to 0.4 nM in experiment [1] and 240 nM in experiment [2].

As to `Cc1ccc(-n2c(C)nnc2SCC(=O)Nc2ccccc2Br)cc1`, the EC50 in experiment [1] worked out at 0.4 nM; in experiment [3] it was 76 nM.

On to `Cc1nnc(SCC(=O)Nc2ccc(S(N)(=O)=O)cc2Cl)n1-c1cccc2ccccc12`, for which the values for the EC50 in experiment [1] and in experiment [2] were 0.5 nM and 190 nM, respectively.

Take `Cc1ccc(NC(=O)CSc2nnc(C)n2-c2cccc(C(F)(F)F)c2)c(Cl)c1`: the concentration giving a half-maximal response (EC50) in experiment [1] was above 600 nM.

As for `Cc1nnc(SCC(=O)Nc2ccccc2Br)n1-c1cccc2ccccc12`, the values for the EC50 in experiment [1] and in experiment [2] were 2 nM and 720 nM, respectively.

Turning to `Cc1ccc(-n2c(SCC(=O)Nc3ccc(C)cc3Br)nnc2C(F)(F)F)cc1`, the half-maximal effective concentration (EC50) in experiment [1] came out at 0.5 nM; in experiment [3], 1100 nM.

For `Cc1ccc(NC(=O)CSc2nnc(C)n2-c2cc(C)c(C)c3ccccc23)c(Cl)c1`, the results for the EC50 in experiment [1] and in experiment [2] were 1 nM and 160 nM, respectively.

`Cc1ccc2cccc(-n3c(C)nnc3SCC(=O)Nc3ccc(S(N)(=O)=O)cc3Cl)c2n1`: the EC50 in experiment [1] came out at 1 nM; in experiment [2], 390 nM.

Turning to `Cc1ccc(-n2c(C)nnc2SCC(=O)Nc2ccccc2C(F)(F)F)cc1`, the EC50 in experiment [1] is 7 nM; in experiment [3], above 10000 nM.

As for `Cc1ccc(-n2c(C)nnc2SCC(=O)Nc2cc(Cl)ccc2Cl)cc1`, in experiment [1], the EC50 is 100 nM.

With `Cc1ccc(-n2c(C)nnc2SCC(=O)Nc2ccccc2Cl)cc1`, the results for the EC50 in experiment [1] and in experiment [3] were 0.7 nM and 150 nM, respectively.

Turning to `Cc1nnc(SCC(=O)Nc2ccc(S(N)(=O)=O)cc2Cl)n1-c1ccc(N(C)C)c2ccccc12`, the values for the EC50 in experiment [1] and in experiment [2] were 0.5 nM and 88 nM, respectively.

As to `Cc1ccc(-n2cnnc2SCC(=O)Nc2ccc(C)cc2Br)cc1`, the EC50 in experiment [1] was 70 nM; in experiment [3] it was above 10000 nM.

Turning to `Cc1ccc(-n2c(C)nnc2SCC(=O)Nc2ccc(Cl)cc2Cl)cc1`, the EC50 in experiment [1] is 5 nM.

Regarding `Cc1cccc(-n2c(C)nnc2SCC(=O)Nc2ccc(C)cc2Cl)c1`, a half-maximal response in experiment [1] (EC50) required 110 nM.

For `Cc1ccc(-n2c(C)nnc2SCC(=O)Nc2ccc(C#N)cc2Cl)cc1`, the EC50 in experiment [1] was found to be 3 nM; in experiment [3], 900 nM.

Take `Cc1ccc(-n2c(C)nnc2SCC(=O)Nc2ccc(C(C)C)cc2Br)cc1`: the EC50 was 140 nM in experiment [1] and above 10000 nM in experiment [3].

`Cc1ccc2cccc(-n3c(SCC(=O)Nc4ccc(S(N)(=O)=O)cc4Cl)nnc3C(F)(F)F)c2n1`: the EC50 in experiment [1] worked out at 0.6 nM; in experiment [2], 22 nM.

Take `Cc1ccc2cc(Cl)cc(-n3c(C)nnc3SCC(=O)Nc3ccc(S(N)(=O)=O)cc3Cl)c2n1`: the concentration for a half-maximal effect (EC50) in experiment [1] came out at 2 nM; in experiment [2] it was 100 nM.

With `Cc1nnc(SCC(=O)Nc2ccc(S(N)(=O)=O)cc2Cl)n1-c1cccc2cccnc12`, the results for the EC50 in experiment [1] and in experiment [2] were 4 nM and 2400 nM, respectively.

Take `Cc1ccc2c(C)ccc(-n3c(C)nnc3SCC(=O)Nc3ccc(S(N)(=O)=O)cc3Cl)c2n1`: the concentration for a half-maximal effect (EC50) stood at 0.6 nM in experiment [1] and 15 nM in experiment [2].

Consider `Cc1ccc(NC(=O)CSc2nnc(C)n2-c2ccccc2Cl)c(Cl)c1`, for which the EC50 in experiment [1] stood at 8 nM; in experiment [3], 100 nM.

In experiment [3], `Cc1ccc(-n2c(O)nnc2SCC(=O)Nc2ccc(C)cc2Br)cc1` gave an EC50 above 10000 nM.

As for `NS(=O)(=O)c1ccc(NC(=O)CSc2nnc(C(F)(F)F)n2-c2cccc3ccccc23)c(Cl)c1`, the values for the EC50 in experiment [1] and in experiment [2] were 0.5 nM and 49 nM, respectively.

In the case of `Cc1ccc2c(C)ccc(-n3c(SCC(=O)Nc4ccc(S(N)(=O)=O)cc4Cl)nnc3C(F)(F)F)c2c1`, the EC50 in experiment [1] amounted to 6 nM; in experiment [2], 35 nM.

On to `Cc1ccc(NC(=O)CSc2nnc(C)n2-c2cccc3cccnc23)c(Cl)c1`, for which the EC50 in experiment [1] was 8 nM; in experiment [2], 5700 nM.

Turning to `Cc1ccc2ccc(C)c(-n3c(SCC(=O)Nc4ccc(S(N)(=O)=O)cc4Cl)nnc3C(F)(F)F)c2c1`, the values for the half-maximal effective concentration (EC50) in experiment [1] and in experiment [2] were 3 nM and 26 nM, respectively.

In the case of `Cc1ccc(-n2c(C)nnc2SCC(=O)Nc2ccc(C)cc2Cl)c(C)c1`, the EC50 in experiment [1] was 0.1 nM; in experiment [3], 60 nM.

On to `Cc1nnc(SCC(=O)Nc2ccccc2Br)n1-c1cccc2cccnc12`, for which the values for the EC50 in experiment [1] and in experiment [2] were 7 nM and 4200 nM, respectively.

`Cc1ccc(-n2c(C)nnc2SCC(=O)Nc2cccc(Cl)c2)cc1`: the EC50 in experiment [1] and in experiment [3] was above 10000 nM each time.

`Cc1ccc(-n2c(CO)nnc2SCC(=O)Nc2ccc(C)cc2Br)cc1` came in with an EC50 in experiment [3] above 10000 nM.

As for `Cc1ccc2c(C)cc(C)c(-n3c(C)nnc3SCC(=O)Nc3ccc(S(N)(=O)=O)cc3Cl)c2n1`, the EC50 in experiment [1] was 0.7 nM; in experiment [2] it was 11 nM.

As for `Cc1ccc(-n2c(C)nnc2SCC(=O)Nc2ccc(C)cc2Br)cc1`, the EC50 in experiment [1] came to 0.4 nM; in experiment [3], 100 nM.

For `COc1ccc(-n2c(SCC(=O)Nc3ccc(S(N)(=O)=O)cc3Cl)nnc2C(F)(F)F)c2ccccc12`, the EC50 in experiment [1] was determined as 0.4 nM; in experiment [2], 14 nM.

In the case of `Cc1cc2c(C)cccc2c(-n2c(C)nnc2SCC(=O)Nc2ccccc2Br)c1C`, the figures for the EC50 in experiment [1] and in experiment [2] were 0.8 nM and 160 nM, respectively.

Regarding `Cc1ccc(NC(=O)CSc2nnc(C)n2-c2c(C)cc(C)c3ccccc23)c(Cl)c1`, the half-maximal effective concentration (EC50) in experiment [1] came to 1 nM; in experiment [2] it was 90 nM.

For the molecule `Cc1ccc(-n2c(C)nnc2SCC(=O)Nc2ccc(C)cc2Cl)cc1`, the EC50 in experiment [1] amounted to 0.9 nM; in experiment [3] it was 170 nM.

With `Cc1ccc(-n2c(SCC(=O)Nc3ccc(C)cc3Br)nnc2C2CC2)cc1`, the EC50 in experiment [3] is above 10000 nM.

Molecule `CSCc1nnc(SCC(=O)Nc2ccc(C)cc2Br)n1-c1ccc(C)cc1` registered an EC50 in experiment [3] above 10000 nM.

For the molecule `Cc1ccc(NC(=O)CSc2nnc(C)n2-c2ccc(F)cc2)c(Cl)c1`, the EC50 in experiment [1] was 2300 nM; in experiment [3], above 10000 nM.

As for `COc1ccc(-n2c(C)nnc2SCC(=O)Nc2ccc(S(N)(=O)=O)cc2Cl)c2ccccc12`, the EC50 amounted to 0.7 nM in experiment [1] and 110 nM in experiment [2].

Regarding `CNCc1nnc(SCC(=O)Nc2ccc(C)cc2Br)n1-c1ccc(C)cc1`, in experiment [3], the EC50 was above 10000 nM.

Turning to `NS(=O)(=O)c1ccc(NC(=O)CSc2nnc(C(F)(F)F)n2-c2ccc(Cl)c3ccccc23)c(Cl)c1`, the EC50 in experiment [1] was found to be 4 nM; in experiment [2], 41 nM.

As to `NS(=O)(=O)c1ccc(NC(=O)CSc2nnc(C(F)(F)F)n2-c2cccc3cccnc23)c(Cl)c1`, the values for the EC50 in experiment [1] and in experiment [2] were 2 nM and 180 nM, respectively.

As for `Cc1nnc(SCC(=O)Nc2ccc(S(N)(=O)=O)cc2Cl)n1-c1cc(Br)cc2cccnc12`, the EC50 in experiment [1] amounted to 0.8 nM; in experiment [2], 190 nM.

Turning to `Cc1ccc(-n2c(C)nnc2SCC(=O)Nc2ccc(Cl)cc2)cc1`, the EC50 in experiment [1] is 400 nM; in experiment [3], above 10000 nM.

For the molecule `Cc1ccc(-n2c(C)nnc2SCC(=O)Nc2ccccc2-c2ccccc2)cc1`, the 50% effective concentration (EC50) in experiment [1] and in experiment [3] was above 10000 nM in each case.

For the molecule `Cc1ccc(NC(=O)CSc2nnc(C)n2-c2cccc(Cl)c2)c(Cl)c1`, the response in experiment [1] was half-maximal at 260 nM (EC50).

With `Cc1ccc2cccc(C)c2c1-n1c(C)nnc1SCC(=O)Nc1ccccc1Br`, the EC50 in experiment [1] is 1 nM; in experiment [2], 480 nM.

Turning to `Cc1ccc2c(C)ccc(-n3c(C)nnc3SCC(=O)Nc3ccccc3Br)c2c1`, the results for the EC50 in experiment [1] and in experiment [2] were 0.3 nM and 12 nM, respectively.

With `COc1cc(-n2c(C)nnc2SCC(=O)Nc2ccc(S(N)(=O)=O)cc2Cl)c2ncccc2c1`, the EC50 in experiment [1] is 0.8 nM; in experiment [2], 370 nM.

As for `Cc1cc2cccc(C)c2c(-n2c(C)nnc2SCC(=O)Nc2ccccc2Br)c1C`, the EC50 turned out to be 3 nM in experiment [1] and 200 nM in experiment [2].

As for `Cc1ccc2c(-n3c(C)nnc3SCC(=O)Nc3ccccc3Br)ccc(C)c2c1`, the results for the concentration for a half-maximal effect (EC50) in experiment [1] and in experiment [2] were 0.5 nM and 150 nM, respectively.

Turning to `CSc1ccccc1NC(=O)CSc1nnc(C)n1-c1ccc(C)cc1`, the EC50 in experiment [1] was determined as 0.6 nM; in experiment [3] it was 120 nM.

For the molecule `Cc1ccc(-n2c(C)nnc2SCC(=O)Nc2cccc(Cl)c2Cl)cc1`, the EC50 worked out at 0.1 nM in experiment [1] and 110 nM in experiment [3].

For the molecule `Cc1cc2c(C)ccc(-n3c(C)nnc3SCC(=O)Nc3ccccc3Br)c2cc1C`, the concentration for a half-maximal effect (EC50) is 1 nM in experiment [1] and 110 nM in experiment [2].

`COCc1nnc(SCC(=O)Nc2ccc(C)cc2Br)n1-c1ccc(C)cc1` yielded an EC50 in experiment [3] above 10000 nM.

As for `CCc1nnc(SCC(=O)Nc2ccc(C)cc2Br)n1-c1ccc(C)cc1`, the EC50 in experiment [1] worked out at 0.1 nM; in experiment [3] it was 2500 nM.

As for `Cc1ccc(NC(=O)CSc2nnc(C)n2-c2ccc(C(F)(F)F)cc2)c(Cl)c1`, the EC50 in experiment [1] was found to be 19 nM; in experiment [3], 230 nM.

As to `Cc1ccc(-n2c(C)nnc2SCC(=O)Nc2ccc(S(N)(=O)=O)cc2Cl)c2ccccc12`, the EC50 in experiment [1] came to 0.2 nM; in experiment [2], 20 nM.

For the molecule `Cc1ccc2c(C)cccc2c1-n1c(C)nnc1SCC(=O)Nc1ccccc1Br`, the EC50 in experiment [1] worked out at 0.3 nM; in experiment [2] it was 330 nM.

With `CCc1ccc(-n2c(C)nnc2SCC(=O)Nc2ccc(C)cc2Cl)cc1`, the EC50 was 0.2 nM in experiment [1] and 60 nM in experiment [3].

Take `Cc1ccc(-n2c(C)nnc2SCC(=O)Nc2ccccc2I)cc1`: the EC50 in experiment [1] turned out to be 0.5 nM; in experiment [3], 220 nM.

`Cc1ccc(-n2c(SCC(=O)Nc3ccc(S(N)(=O)=O)cc3Cl)nnc2C(F)(F)F)c2ccccc12`: the EC50 in experiment [1] was found to be 0.4 nM; in experiment [2], 25 nM.
